Converted amounts (≈) assume the structure as drawn.
Tested on: A. baumannii strain ATCC19606
Test: Minimum inhibitory concentration (MIC) determination, microbroth dilution (CLSI)
Assay type: cell-based
Settings: Acinetobacter baumannii; A. baumannii ATCC19606; CAMHB; read after 20 hours; >=80% growth inhibition; read-out: ATCC19606 MIC
Summary of the method: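 After 20 h at 35±2 °C, MIC taken visually and by OD 600 nm as the lowest concentration giving ≥80% growth inhibition. Bacteria (~5×10^5 CFU/ml) were tested per CLSI microbroth dilution against twofold serial compound dilutions in cation-adjusted Mueller Hinton broth.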

SMILES	MIC [mg/L]
Cc1ccc(-c2cc3c(cn2)Sc2ncccc2CN[C@@H](CCCN)C(=O)N[C@@H](CCCCN)C(=O)N(C)[C@@H](Cc2c[nH]c4ccccc24)C(=O)NC3)cn1 [Example 178, (7S,10S,13S)-13-((1H-Indol-3-yl)methyl)-10-(4-aminobutyl)-7-(3-aminopropyl)-12-methyl-18-(6-methylpyridin-3-yl)-6,7,9,10,12,13,15,16-octahydrodipyrido[2,3-b:4′,3′-p][1,5,8,11,14]thiatetraazacycloheptadecine-8,11,14(5H)-trione]	32 (≈ 41.9 µM)
CN1C(=O)[C@H](CCCCN)NC(=O)[C@H](CCCN)NCc2ccccc2Sc2c(Cl)ccc(Cl)c2CNC(=O)[C@@H]1Cc1c[nH]c2ccccc12 [Example 23, (12S,15S,18S)-15-(4-Amino-butyl)-18-(3-amino-propyl)-4,7-dichloro-12-(1H-indol-3-ylmethyl)-13-methyl-2-thia-10,13,16,19-tetraaza-tricyclo[19.4.0.0*3,8*]pentacosa-1(25),3,5,7,21,23-hexaene-11,14,17-trione]	0.5 (≈ 0.677 µM)
CCN1C(=O)[C@H](CCCCN)NC(=O)[C@H](CCCN)NCc2cccnc2Sc2c(Cl)cc(C(F)(F)F)cc2CNC(=O)[C@@H]1Cc1c[nH]c2ccccc12 [Example 77, (11S,14S,17S)-14-(4-Amino-butyl)-11-(3-amino-propyl)-25-chloro-16-ethyl-17-(1H-indol-3-ylmethyl)-23-trifluoromethyl-2-thia-4,10,13,16,19-pentaaza-tricyclo[19.4.0.0*3,8*]pentacosa-1(25),3(8),4,6,21,23-hexaene-12,15,18-trione]	0.5 (≈ 0.635 µM)
CN1C(=O)[C@H](CCCCN)NC(=O)[C@H](CCC(N)=O)NCc2cccnc2Sc2c(Cl)cc(-c3ccccn3)cc2CNC(=O)[C@@H]1Cc1c[nH]c2ccccc12 [Example 163, 3-[(11S,14S,17S)-14-(4-Amino-butyl)-25-chloro-17-(1H-indol-3-ylmethyl)-16-methyl-12,15,18-trioxo-23-pyridin-2-yl-2-thia-4,10,13,16,19-pentaaza-tricyclo[19.4.0.0*3,8*]pentacosa-1(25),3(8),4,6,21,23-hexaen-1-yl]-propionamide]	4 (≈ 5.02 µM)
CN1C(=O)[C@H](CCCCN)NC(=O)[C@H](CCCNC(=O)OCc2ccccc2)NCc2cccnc2Sc2c(Cl)ccc(Cl)c2CNC(=O)[C@@H]1Cc1c[nH]c2ccccc12 [Example 139, {3-[(11S,14S,17S)-14-(4-Amino-butyl)-22,25-dichloro-17-(1H-indol-3-ylmethyl)-16-methyl-12,15,18-trioxo-2-thia-4,10,13,16,19-pentaaza-tricyclo[19.4.0.0*3,8*]pentacosa-1(25),3(8),4,6,21,23-hexaen-11-yl]-propyarbamic acid benzyl ester]	2 (≈ 2.29 µM)
CCc1ccc2c(c1)CNC(=O)[C@H](Cc1c[nH]c3ccccc13)N(C)C(=O)[C@H](CCCCN)NC(=O)[C@H](CCCN)NCc1ccccc1S2 [Example 66, (12S,15S,18S)-15-(4-Amino-butyl)-18-(3-amino-propyl)-6-ethyl-12-(1H-indol-3-ylmethyl)-13-methyl-2-thia-10,13,16,19-tetraaza-tricyclo[19.4.0.0*3,8*]pentacosa-1(25),3,5,7,21,23-hexaene-11,14,17-trione]	0.5 (≈ 0.716 µM)
CN1C(=O)[C@H](CCCCN)NC(=O)[C@H](CCCN)NCc2cccnc2Sc2c(Cl)ccc(C(F)(F)F)c2CNC(=O)[C@@H]1Cc1c[nH]c2ccccc12 [Example 39, (11S,14S,17S)-14-(4-Amino-butyl)-11-(3-amino-propyl)-25-chloro-17-(1H-indol-3-ylmethyl)-16-methyl-22-trifluoromethyl-2-thia-4,10,13,16,19-pentaaza-tricyclo[19.4.0.0*3,8*]pentacosa-1(25),3,5,7,21,23-hexaene-12,15,18-trione]	0.5 (≈ 0.647 µM)
Cc1cc(Cl)c2c(c1)CNC(=O)[C@H](Cc1c[nH]c3ccccc13)N(C)C(=O)[C@H](CCCCN)NC(=O)[C@H](CCCN)NCc1ccccc1S2 [Example 41, (12S,15S,18S)-15-(4-Amino-butyl)-18-(3-amino-propyl)-4-chloro-12-(1H-indol-3-ylmethyl)-6,13-dimethyl-2-thia-10,13,16,19-tetraaza-tricyclo[19.4.0.0*3,8*]pentacosa-1(25),3,5,7,21,23-hexaene-11,14,17-trione]	0.5 (≈ 0.696 µM)
C[C@@H]1NC(=O)[C@H](Cc2c[nH]c3ccccc23)N(C)C(=O)[C@H](CCCCN)NC(=O)[C@H](CCCN)NCc2ccccc2Sc2ccc(Cl)cc21 [Example 20, (9S,12S,15S,18S)-15-(4-Amino-butyl)-18-(3-amino-propyl)-6-chloro-12-(1H-indol-3-ylmethyl)-9,13-dimethyl-2-thia-10,13,16,19-tetraaza-tricyclo[19.4.0.0*3,8*]pentacosa-1(25),3,5,7,21,23-hexaene-11,14,17-trione]	2 (≈ 2.78 µM)

Continued by falling MIC, values first:

MIC [mg/L]	SMILES
32 (≈ 39.8 µM)	CN1C(=O)[C@H](CCCCN)NC(=O)[C@H](CCC(N)=O)NCc2cccnc2Sc2c(Cl)cc(N3CCOCC3)cc2CNC(=O)[C@@H]1Cc1c[nH]c2ccccc12 [Example 137, 3-[(11S,14S,17S)-14-(4-Amino-butyl)-25-chloro-17-(1H-indol-3-ylmethyl)-16-methyl-23-morpholin-4-yl-12,15,18-trioxo-2-thia-4,10,13,16,19-pentaaza-tricyclo[19.4.0.0*3,8*]pentacosa-1(25),3(8),4,6,21,23-hexaen-11-yl]-propionamide]
16 (≈ 19.8 µM)	CN1C(=O)[C@H](CCCCN)NC(=O)[C@H](CCCN)NCc2cccnc2Sc2c(Cl)cc(-c3ccc(C#N)cc3)cc2CNC(=O)[C@@H]1Cc1c[nH]c2ccccc12 [Example 211, 4-[(11S,14S,17S)-14-(4-Amino-butyl)-11-(3-amino-propyl)-25-chloro-17-(1H-indol-3-ylmethyl)-16-methyl-12,15,18-trioxo-2-thia-4,10,13,16,19-pentaaza-tricyclo[19.4.0.0*3,8*]pentacosa-1(25),3(8),4,6,21,23-hexaen-23-yl]-benzonitrile]
16 (≈ 19.4 µM)	CN1C(=O)[C@H](CCCCN)NC(=O)[C@H](Cc2ccc3ccccc3c2)NCc2cccnc2Sc2c(Cl)cc(Cl)cc2CNC(=O)[C@@H]1Cc1c[nH]c2ccccc12 [Example 108, (11S,14S,17S)-14-(4-Amino-butyl)-23,25-dichloro-17-(1H-indol-3-ylmethyl)-16-methyl-11-naphthalen-2-ylmethyl-2-thia-4,10,13,16,19-pentaaza-tricyclo[19.4.0.0*3,8*]pentacosa-1(25),3,5,7,21,23-hexaene-12,15,18-trione]
2 (≈ 2.83 µM)	CN1C(=O)[C@H](CCCCN)NC(=O)[C@H](CCCN)NCc2ccccc2Sc2c(F)ccc(F)c2CNC(=O)[C@@H]1Cc1c[nH]c2ccccc12 [Example 29, (12S,15S,18S)-15-(4-Amino-butyl)-18-(3-amino-propyl)-4,7-difluoro-12-(1H-indol-3-ylmethyl)-13-methyl-2-thia-10,13,16,19-tetraaza-tricyclo[19.4.0.0*3,8*]pentacosa-1(21),3,5,7,22,24-hexaene-11,14,17-trione]
1 (≈ 1.38 µM)	CN1C(=O)[C@H](CCCCN)NC(=O)[C@H](CCCN)NCc2cccnc2Sc2c(Cl)ccc(F)c2CNC(=O)[C@@H]1Cc1c[nH]c2ccccc12 [Example 54, (11S,14S,17S)-14-(4-Amino-butyl)-1-(3-amino-propyl)-25-chloro-22-fluoro-17-(1H-indol-3-ylmethyl)-16-methyl-2-thia-4,10,13,16,19-pentaaza-tricyclo[19.4.0.0*3,8*]pentacosa-1(25),3(8),4,6,21,23-hexaene-12,15,18-trione]
1 (≈ 1.29 µM)	CN1C(=O)[C@H](CCCCN)NC(=O)[C@H](CCCN)NCc2ccncc2Sc2c(Cl)cc(C(F)(F)F)cc2CNC(=O)[C@@H]1Cc1c[nH]c2ccccc12 [Example 123, (11S,14S,17S)-14-(4-Amino-butyl)-11-(3-amino-propyl)-25-chloro-17-(1H-indol-3-ylmethyl)-16-methyl-23-trifluoromethyl-2-thia-5,10,13,16,19-pentaaza-tricyclo[19.4.0.0*3,8*]pentacosa-1(25),3,5,7,21,23-hexaene-12,15,18-trione]
0.5 (≈ 0.576 µM)	CN1C(=O)[C@H](CCCCN)NC(=O)[C@H](CCCN)NCc2cccnc2Sc2c(Cl)cc(-c3ccnc(N4CCOCC4)c3)cc2CNC(=O)[C@@H]1Cc1c[nH]c2ccccc12 [Example 162, (11S,14S,17S)-14-(4-Amino-butyl)-11-(3-amino-propyl)-25-chloro-17-(1H-indol-3-ylmethyl)-16-methyl-23-(2-morpholin-4-yl-pyridin-4-yl)-2-thia-4,10,13,16,19-pentaaza-tricyclo[19.4.0.0*3,8*]pentacosa-1(25),3(8),4,6,21,23-hexaene-12,15,18-trione]
0.5 (≈ 0.606 µM)	CN(C)c1ccc(-c2cc(Cl)c3c(c2)CNC(=O)[C@H](Cc2c[nH]c4ccccc24)N(C)C(=O)[C@H](CCCCN)NC(=O)[C@H](CCCN)NCc2cccnc2S3)cn1 [Example 166, (11S,14S,17S)-14-(4-Amino-butyl)-11-(3-amino-propyl)-25-chloro-23-(6-dimethylamino-pyridin-3-yl)-17-(1H-indol-3-ylmethyl)-16-methyl-2-thia-4,10,13,16,19-pentaaza-tricyclo[19.4.0.0*3,8*]pentacosa-1(25),3(8),4,6,21,23-hexaene-12,15,18-trione]
0.12 (≈ 0.15 µM)	CN1C(=O)[C@H](CCCCN)NC(=O)[C@H](CCCN)NCc2cccnc2Sc2c(Cl)ccc(-c3ccnc(F)c3)c2CNC(=O)[C@@H]1Cc1c[nH]c2ccccc12 [Example 222, (11S,14S,17S)-14-(4-Amino-butyl)-11-(3-amino-propyl)-25-chloro-22-(2-fluoro-pyridin-4-yl)-17-(1H-indol-3-ylmethyl)-16-methyl-2-thia-4,10,13,16,19-pentaaza-tricyclo[19.4.0.0*3,8*]pentacosa-1(25),3(8),4,6,21,23hexaene-12,15,18-trione]

Reference: patent US10030047B2 (Hoffmann-La Roche Inc., priority 2015, dated 2018)
